Assay results as given in patent US10294202B2, “Pyrrolidinones as herbicides” (FMC Corporation, priority 2013, dated 2019).

Columns and labels:
ryegrass, Italian = assay: Test D pre-/postemergence herbicide test; assay type: in vivo, Lolium multiflorum; details: for Plant response rating: Postemergence, Ryegrass, Italian, scale 0 to 100; for Plant response rating, Ryegrass, Italian: Preemergence, scale 0 to 100 (0 no effect, 100 complete control)
Excerpt: (§1) Seeds of plant species selected from bluegrass (annual bluegrass, Poa annua), blackgrass (Alopecurus myosuroides), canarygrass (littleseed canarygrass, Phalaris minor), chickweed (common chickweed, Stellaria media), galium (catchweed bedstraw, Galium aparine), bromegrass, downy (downy bromegrass, Bromus tectorum), field poppy (Papaver rhoeas), field violet (Viola arvensis), foxtail, green (green foxtail, Setaria viridis), deadnettle (henbit deadnettle, Lamium amplexicaule), ryegrass, Italian (Italian ryegrass, Lolium multiflorum), kochia (Kochia scoparia), lambsquarters (Chenopodium album), oilseed rape (Brassica napus), pigweed (Amaranthus retroflexus), chamomile (scentless chamomile, Matricaria inodora), Russian thistle (Salsola kali), speedwell (bird's-eye speedwell, Veronica persica), barley, spring (spring barley, Hordeum vulgare), wheat, spring (spring wheat, Triticum aestivum), buckwheat, wild (wild buckwheat, Polygonum convolvulus), mustard, wild (wild mustard, Sinapis arvensis), oat, wild (wild oat, Avena fatua), radish, wild (wild radish, Raphanus raphanistrum), […]), barley, winter (winter barley, Hordeum vulgare), and wheat, winter (winter wheat, Triticum aestivum) were planted into a silt loam soil and treated preemergence with test chemicals formulated in a non-phytotoxic solvent mixture which included a surfactant. At the same time, these species were planted in pots containing Redi-Earth® planting medium (Scotts Company, 14111 Scottslawn Road, Marysville, Ohio 43041) comprising spaghnum peat moss, vermiculite, wetting agent and starter nutrients and treated with postemergence applications of the test chemicals formulated in the same manner. Plants ranged in height from 2 to 18 cm (1- to 4-leaf stage). Treated plants and controls were maintained in a controlled growth environment for 7 to 21 days after which time all species were compared to controls and visually evaluated. Plant response ratings, summarized in Table D, are based on a scale of 0 to 100 where 0 is no effect and 100 is complete control. A dash (-) response means no test result.

canarygrass = assay: Test D pre-/postemergence herbicide test; assay type: in vivo, Phalaris minor; details: for Plant response rating: Canarygrass, scale 0 to 100; for Plant response rating, Canarygrass: scale 0 to 100 (0 no effect, 100 complete control)
Excerpt: as §1

chickweed = assay: Test D pre-/postemergence herbicide test; assay type: in vivo, Stellaria media; details: for Plant response rating: Chickweed, scale 0 to 100; for Plant response rating, Chickweed: scale 0 to 100 (0 no effect, 100 complete control)
Excerpt: as §1

barnyardgrass = assay: Test E preemergence herbicide test; assay type: in vivo, Echinochloa crus-galli; design: key: 0 = no effect, 100 = complete control
Excerpt: (§2) Seeds of plant species selected from corn (Zea mays), soybean (Glycine max), velvetleaf (Abutilon theophrasti), lambsquarters (Chenopodium album), wild poinsettia (Euphorbia heterophylla), pigweed, palmer (palmer pigweed, Amaranthus palmeri), waterhemp (common waterhemp, Amaranthus rudis), surinam grass (Brachiaria decumbens), crabgrass, large (large crabgrass, Digitaria sanguinalis), crabgrass, Brazil (Brazilian crabgrass, Digitaria horizontalis), panicum, fall (fall panicum, Panicum dichotomiflorum), foxtail, giant (giant foxtail, Setaria faberii), foxtail, green (green foxtail, Setaria viridis), goosegrass (Eleusine indica), johnsongrass (Sorghum halepense), ragweed (common ragweed, Ambrosia elatior), barnyardgrass (Echinochloa crus-galli), sandbur (southern sandbur, Cenchrus echinatus), arrowleaf […] rhombifolia), ryegrass, Italian (Italian ryegrass, Lolium multiflorum), dayflower, VA (Virginia dayflower, Commelina virginica), field bindweed (Convolvulus arvensis), morningglory (Ipomoea coccinea), nightshade (eastern black nightshade, Solanum ptycanthum), kochia (Kochia scoparia), nutsedge, yellow (yellow nutsedge, Cyperus esculentus), cocklebur (common cocklebur, Xanthium strumarium), smartweed (ladysthumb smartweed, Polygonum Persicaria) and beggarticks (hairy beggarticks, Bidens pilosa), were planted into a silt loam soil and treated preemergence with test chemicals formulated in a non-phytotoxic solvent mixture which included a surfactant. Treated plants and controls were maintained in a greenhouse for 21 days, after which time all species were compared to controls and visually evaluated. Plant response ratings, summarized in Table E, are based on a scale of 0 to 100 where 0 is no effect and 100 is complete control. A dash (-) response means no test result.

johnsongrass = assay: Test E preemergence herbicide test; assay type: in vivo, Sorghum halepense; design: key: 0 = no effect, 100 = complete control
Excerpt: as §2

surinam grass = assay: Test E preemergence herbicide test; assay type: in vivo, Brachiaria decumbens; design: key: 0 = no effect, 100 = complete control
Excerpt: as §2

arrowleaf sida = assay: Test E preemergence herbicide test; assay type: in vivo, Sida rhombifolia; design: key: 0 = no effect, 100 = complete control
Excerpt: as §2

crabgrass, large = assay: Test E preemergence herbicide test; assay type: in vivo, Digitaria sanguinalis; design: key: 0 = no effect, 100 = complete control
Excerpt: as §2

## O=C1NCC(c2cc(F)c(F)c(F)c2)C1C(=O)Nc1ccccc1F (racemic) [Compound 34]
ryegrass, Italian; 16 g ai/ha
  Plant response rating: 0
ryegrass, Italian; 31 g ai/ha
  Plant response rating: 0
ryegrass, Italian; 62 g ai/ha
  Plant response rating: 0
ryegrass, Italian; 125 g ai/ha
  Plant response rating: 0
ryegrass, Italian; 250 g ai/ha
  Plant response rating: 0
canarygrass; Postemergence, 16 g ai/ha
  Plant response rating: 0
canarygrass; Postemergence, 31 g ai/ha
  Plant response rating: 0
canarygrass; Postemergence, 62 g ai/ha
  Plant response rating: 0
canarygrass; Postemergence, 125 g ai/ha
  Plant response rating: 0
canarygrass; Postemergence, 250 g ai/ha
  Plant response rating: 0
chickweed; Postemergence, 16 g ai/ha
  Plant response rating: 0
chickweed; Postemergence, 31 g ai/ha
  Plant response rating: 0
chickweed; Postemergence, 62 g ai/ha
  Plant response rating: 0
chickweed; Postemergence, 125 g ai/ha
  Plant response rating: 10
chickweed; Postemergence, 250 g ai/ha
  Plant response rating: 20

## O=C1NCC(c2cccc(C(F)(F)F)c2)C1C(=O)Nc1ccc(F)cc1F (racemic) [Compound 207]
ryegrass, Italian; 31 g ai/ha
  Plant response rating, Ryegrass, Italian: 0
ryegrass, Italian; 62 g ai/ha
  Plant response rating, Ryegrass, Italian: 5
ryegrass, Italian; 125 g ai/ha
  Plant response rating, Ryegrass, Italian: 5
ryegrass, Italian; 250 g ai/ha
  Plant response rating, Ryegrass, Italian: 15
canarygrass; Preemergence, 31 g ai/ha
  Plant response rating, Canarygrass: 0
canarygrass; Preemergence, 62 g ai/ha
  Plant response rating, Canarygrass: 5
canarygrass; Preemergence, 125 g ai/ha
  Plant response rating, Canarygrass: 0
canarygrass; Preemergence, 250 g ai/ha
  Plant response rating: 75
chickweed; Preemergence, 31 g ai/ha
  Plant response rating, Chickweed: 60
chickweed; Preemergence, 62 g ai/ha
  Plant response rating, Chickweed: 60
chickweed; Preemergence, 125 g ai/ha
  Plant response rating, Chickweed: 70
chickweed; Preemergence, 250 g ai/ha
  Plant response rating: 100

## O=C1NCC(c2cccc(Br)c2)C1C(=O)Nc1ccccc1F (stereo not shown) [Compound 66]
barnyardgrass; 16 g ai/ha
  Plant response rating, Barnyardgrass: 0
barnyardgrass; 31 g ai/ha
  Plant response rating, Barnyardgrass: 0
barnyardgrass; 62 g ai/ha
  Plant response rating, Barnyardgrass: 20
barnyardgrass; 125 g ai/ha
  Plant response rating, Barnyardgrass: 50
barnyardgrass; 250 g ai/ha
  Plant response rating, Barnyardgrass: 50
johnsongrass; 16 g ai/ha
  Plant response rating, Johnsongrass: 0
johnsongrass; 31 g ai/ha
  Plant response rating, Johnsongrass: 0
johnsongrass; 62 g ai/ha
  Plant response rating, Johnsongrass: 0
johnsongrass; 125 g ai/ha
  Plant response rating, Johnsongrass: 0
johnsongrass; 250 g ai/ha
  Plant response rating, Johnsongrass: 0
Surinam grass; 16 g ai/ha
  Plant response rating, Surinam Grass: 0
Surinam grass; 31 g ai/ha
  Plant response rating, Surinam Grass: 0
Surinam grass; 62 g ai/ha
  Plant response rating, Surinam Grass: 0
Surinam grass; 125 g ai/ha
  Plant response rating, Surinam Grass: 0
Surinam grass; 250 g ai/ha
  Plant response rating, Surinam Grass: 35
Arrowleaf sida; 16 g ai/ha
  Plant response rating, Arrowleaf Sida: 0
Arrowleaf sida; 31 g ai/ha
  Plant response rating, Arrowleaf Sida: 0
Arrowleaf sida; 62 g ai/ha
  Plant response rating, Arrowleaf Sida: 0
Arrowleaf sida; 125 g ai/ha
  Plant response rating, Arrowleaf Sida: 0
Arrowleaf sida; 250 g ai/ha
  Plant response rating, Arrowleaf Sida: 0
crabgrass, large; 16 g ai/ha
  Plant response rating, Crabgrass, Large: 0
crabgrass, large; 31 g ai/ha
  Plant response rating, Crabgrass, Large: 10
crabgrass, large; 62 g ai/ha
  Plant response rating, Crabgrass, Large: 75
crabgrass, large; 125 g ai/ha
  Plant response rating, Crabgrass, Large: 90
crabgrass, large; 250 g ai/ha
  Plant response rating, Crabgrass, Large: 98

## O=C1NCC(c2cccc(C(F)(F)F)c2)C1C(=O)Nc1cccc(F)c1F (stereo not shown) [Compound 241]
ryegrass, Italian; 31 g ai/ha
  Plant response rating, Ryegrass, Italian: 15
ryegrass, Italian; 62 g ai/ha
  Plant response rating, Ryegrass, Italian: 20
ryegrass, Italian; 125 g ai/ha
  Plant response rating, Ryegrass, Italian: 20
ryegrass, Italian; 250 g ai/ha
  Plant response rating, Ryegrass, Italian: 50
canarygrass; Preemergence, 31 g ai/ha
  Plant response rating, Canarygrass: 20
canarygrass; Preemergence, 62 g ai/ha
  Plant response rating, Canarygrass: 45
canarygrass; Preemergence, 125 g ai/ha
  Plant response rating, Canarygrass: 65
canarygrass; Preemergence, 250 g ai/ha
  Plant response rating: 75
chickweed; Preemergence, 31 g ai/ha
  Plant response rating, Chickweed: 90
chickweed; Preemergence, 62 g ai/ha
  Plant response rating, Chickweed: 80
chickweed; Preemergence, 125 g ai/ha
  Plant response rating, Chickweed: 95
chickweed; Preemergence, 250 g ai/ha
  Plant response rating: 100
